The source made the active and inactive calls. The calls are words filed in the database; no cut-off is given here.
Columns and labels:
[1] = Drug uptake in human ASPC1 cells assessed as Km; type: ADME, cell-based
[2] = Drug uptake in human HPDE cells; type: ADME, cell-based
[3] = tested on: ASPC1; assay: Cytotoxicity against human ASPC1 cells assessed as reduction in cell viability pretreated with glycine for 30 mins by MTT assay; type: functional, cell-based
[4] = Drug uptake in human MIA PaCa-2 cells; type: ADME, cell-based
[5] = Drug uptake in human MIA PaCa-2 cells in presence of glutamate; type: ADME, cell-based
[6] = Stability in human ASPC1 cells homogenate assessed as half life; type: ADME, cell-based; conditions: ASPC1 cell homogenate
[7] = Drug uptake in human ASPC1 cells in presence of alpha-Methyl-D,L-tryptophan; type: ADME, cell-based
[8] = Drug uptake in human MIA PaCa-2 cells in presence of lysine; type: ADME, cell-based
[9] = Drug uptake in human MIA PaCa-2 cells assessed as Vmax measured at 10 mins; type: ADME, cell-based; conditions: mia paca-2, 10 min
[10] = tested on: ASPC1; assay: Cytotoxicity against human ASPC1 cells assessed as reduction in cell viability by MTT assay; type: functional, cell-based
[11] = tested on: MIA PaCa-2; assay: Cytotoxicity against human MIA PaCa-2 cells assessed as reduction in cell viability by MTT assay; type: functional, cell-based
[12] = Drug uptake in human ASPC1 cells in presence of glutamate; type: ADME, cell-based
[13] = Drug uptake in human ASPC1 cells assessed as Vmax measured at 10 mins; type: ADME, cell-based; conditions: aspc1, 10 min
[14] = tested on: MIA PaCa-2; assay: Cytotoxicity against human MIA PaCa-2 cells assessed as reduction in cell viability pretreated with glycine for 30 mins by MTT assay; type: functional, cell-based
[15] = Drug uptake in human MIA PaCa-2 cells in presence of alpha-Methyl-D,L-tryptophan; type: ADME, cell-based
[16] = Drug uptake in human ASPC1 cells; type: ADME, cell-based
[17] = Drug uptake in human ASPC1 cells in presence of lysine; type: ADME, cell-based
[18] = Drug uptake in human MIA PaCa-2 cells in presence of glycine; type: ADME, cell-based
[19] = Cytotoxicity against human HPDE cells assessed as reduction in cell viability by MTT assay; type: cell-based
[20] = Stability in rat plasma assessed as half life; type: ADME, cell-free
[21] = Drug uptake in human ASPC1 cells in presence of glycine; type: ADME, cell-based
[22] = Drug uptake in human MIA PaCa-2 cells assessed as Km; type: ADME, cell-based
[23] = Stability in rat liver homogenate assessed as half life; type: ADME, tissue-based

| SMILES | Km [1] | Drug uptake [2] | Activity [3] | Drug uptake [4] | Drug uptake [5] | half-life [6] | Drug uptake [7] | Drug uptake [8] | Vmax [9] | Activity [10] | Activity [11] | Drug uptake [12] | Vmax [13] | Activity [14] | Drug uptake [15] | Drug uptake [16] | Drug uptake [17] | Drug uptake [18] | Activity [19] | half-life [20] | also measured |
| --- | --- | --- | --- | --- | --- | --- | --- | --- | --- | --- | --- | --- | --- | --- | --- | --- | --- | --- | --- | --- | --- |
| CC(C)[C@]12O[C@H]1[C@@H]1O[C@]13[C@]1(O[C@H]1C[C@H]1C4=C(CC[C@@]13C)C(=O)OC4)[C@@H]2OC(=O)[C@@H](N)Cc1c[nH]c2ccccc12 | 105 µM | Not Active | inactive | Active | Active | 8 h | Not Active | Not Active | 5.072 nmol/mg | Active | Active | Active | 5.874 nmol/mg | inactive | Not Active | Active | Not Active | Not Active | Non-Toxic | > 10 h | Drug uptake [21]: Not Active; Km [22]: 96 µM; half-life [23]: 6 h |
| CC(C)[C@]12O[C@H]1[C@@H]1O[C@]13[C@]1(O[C@H]1C[C@H]1C4=C(CC[C@@]13C)C(=O)OC4)[C@@H]2OC(=O)[C@@H](N)CCCCN | 121 µM | Not Active | inactive | Active | Active | 8 h | Not Active | Not Active | 3.516 nmol/mg | Active | Active | Active | 3.41 nmol/mg | inactive | Not Active | Active | Not Active | Not Active | Non-Toxic | > 10 h | Drug uptake [21]: Not Active; Km [22]: 124 µM; half-life [23]: 6 h |
| CC(C)[C@H](N)C(=O)O[C@@H]1[C@@]2(C(C)C)O[C@H]2[C@@H]2O[C@]23[C@]12O[C@H]2C[C@H]1C2=C(CC[C@@]13C)C(=O)OC2 | 130 µM | Not Active | inactive | Active | Active | 8 h | Not Active | Not Active | 4.132 nmol/mg | Active | Active | Active | 4.391 nmol/mg | inactive | Not Active | Active | Not Active | Not Active | Non-Toxic | > 10 h | Drug uptake [21]: Not Active; Km [22]: 112 µM; half-life [23]: 6 h |
| CC(C)[C@]12O[C@H]1[C@@H]1O[C@]13[C@]1(O[C@H]1C[C@H]1C4=C(CC[C@@]13C)C(=O)OC4)[C@@H]2O [TRIPTOLIDE] | – | – | – | – | – | – | – | – | – | Active | Active | – | – | – | – | – | – | – | Toxic | – | – |
